Measured values published in PubChem BioAssay AID248 (DTP/NCI, 2004).
Where “and” joins values, the source holds several entries; their conditions need not be identical. Equal entries are not always repeated. Inconclusive results and toxic doses are left out. No stated cut-off is given here; in the data, active means T/C of 150% or more; inactive means T/C below 125%.

Tested on: L1210 leukemia ip in BDF1 mice, survival T/C
Assay: NCI In Vivo Anticancer Drug Screen. Data for tumor model L1210 Leukemia (intraperitoneal) in B6D2F1 (BDF1) mice
Details: endpoint: mean survival time, higher = longer survival
Summary of the method: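 Transplantable tumor model; survival measured in treated vs vehicle control mice. Value = treated/control.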

[1] = dose: 100.0 mg/kg/injection, schedule: Q01DX001 (ip), vehicle: saline
[2] = dose: 200.0 mg/kg/injection, schedule: Q01DX001 (ip), vehicle: saline
[3] = dose: 100.0 mg/kg/injection, schedule: Q04DX003 (ip), vehicle: saline with Tween-80
[4] = dose: 200.0 mg/kg/injection, schedule: Q04DX003 (ip), vehicle: saline with Tween-80
[5] = dose: 400.0 mg/kg/injection, schedule: Q04DX003 (ip), vehicle: saline with Tween-80
[6] = dose: 50.0 mg/kg/injection, schedule: Q01DX009 (ip), vehicle: Klucel (hydroxypropylcellulose) (HPC)
[7] = dose: 100.0 mg/kg/injection, schedule: Q01DX009 (ip), vehicle: Klucel (hydroxypropylcellulose) (HPC)
[8] = dose: 200.0 mg/kg/injection, schedule: Q01DX009 (ip), vehicle: Klucel (hydroxypropylcellulose) (HPC)

Measured: T/C

CC(=O)/C(C)=C/C=O
inactive: dose: 0.78 mg/kg/injection, schedule: Q01DX009 (ip), vehicle: water 100 % of control | dose: 1.56 mg/kg/injection, schedule: Q01DX009 (ip), vehicle: water 102 % of control | dose: 3.12 mg/kg/injection, schedule: Q01DX009 (ip), vehicle: water 94 % of control | dose: 3.12 mg/kg/injection, schedule: Q04DX003 (ip), vehicle: water 95 % of control | dose: 6.25 mg/kg/injection, schedule: Q01DX009 (ip), vehicle: water 102 % of control | dose: 6.25 mg/kg/injection, schedule: Q04DX003 (ip), vehicle: water 101 % of control | dose: 12.5 mg/kg/injection, schedule: Q01DX009 (ip), vehicle: water 107 % of control | dose: 12.5 mg/kg/injection, schedule: Q04DX003 (ip), vehicle: water 100 % of control and 101 % of control

C=CCO[Si](OCC=C)(OCC=C)OCC=C
inactive: dose: 75.0 mg/kg/injection, schedule: Q01DX001 (ip), vehicle: other 101 % of control | dose: 150.0 mg/kg/injection, schedule: Q01DX001 (ip), vehicle: other 98 % of control

CCOC(=O)CCCc1ccc(N=NN(C)C(C)CC)cc1 (centres undefined)
inactive: dose: 100.0 mg/kg/injection, schedule: Q01DX001 (ip), vehicle: carboxymethylcellulose (CMC) 111 % of control | dose: 200.0 mg/kg/injection, schedule: Q01DX001 (ip), vehicle: carboxymethylcellulose (CMC) 102 % of control | dose: 400.0 mg/kg/injection, schedule: Q01DX001 (ip), vehicle: carboxymethylcellulose (CMC) 107 % of control

COC(=O)CC(c1cccc2ccccc12)c1cccc2ccc3ccccc3c12 (centres undefined)
inactive: dose: 100.0 mg/kg/injection, schedule: Q04DX003 (ip), vehicle: DMSO 92 % of control | dose: 200.0 mg/kg/injection, schedule: Q04DX003 (ip), vehicle: DMSO 94 % of control | dose: 400.0 mg/kg/injection, schedule: Q04DX003 (ip), vehicle: DMSO 89 % of control

C=C1C(=O)N(C)C(C(=O)OC)CC1C(CC)C(=O)OC (centres undefined)
inactive: dose: 25.0 mg/kg/injection, schedule: Q01DX001 (ip), vehicle: saline 104 % of control | dose: 50.0 mg/kg/injection, schedule: Q01DX001 (ip), vehicle: saline 114 % of control | [1] 95 % of control | [2] 108 % of control

O=S(OCCCl)OCCCl
inactive: dose: 75.0 mg/kg/injection, schedule: Q04DX003 (ip), vehicle: Klucel (hydroxypropylcellulose) (HPC) 91 % of control | dose: 150.0 mg/kg/injection, schedule: Q04DX003 (ip), vehicle: Klucel (hydroxypropylcellulose) (HPC) 102 % of control | dose: 300.0 mg/kg/injection, schedule: Q04DX003 (ip), vehicle: Klucel (hydroxypropylcellulose) (HPC) 98 % of control

S=C(Nc1ccccc1)Nc1ccc(Br)cc1
inactive: dose: 100.0 mg/kg/injection, schedule: Q04DX002 (ip), vehicle: Klucel (hydroxypropylcellulose) (HPC) 101 % of control | dose: 200.0 mg/kg/injection, schedule: Q04DX002 (ip), vehicle: Klucel (hydroxypropylcellulose) (HPC) 105 % of control | dose: 400.0 mg/kg/injection, schedule: Q04DX002 (ip), vehicle: Klucel (hydroxypropylcellulose) (HPC) 97 % of control

C[CH2][Ge]([CH2]C)[O][Ge]([CH2]C)[CH2]C
inactive: dose: 5.0 mg/kg/injection, schedule: Q04DX002 (ip), vehicle: saline with Tween-80 95 % of control | dose: 10.0 mg/kg/injection, schedule: Q04DX002 (ip), vehicle: saline with Tween-80 100 % of control | dose: 20.0 mg/kg/injection, schedule: Q04DX002 (ip), vehicle: saline with Tween-80 95 % of control

CCOC(=O)Oc1c(Cl)cc(S(=O)(=O)F)cc1Cl
inactive: dose: 100.0 mg/kg/injection, schedule: Q04DX003 (ip), vehicle: carboxymethylcellulose (CMC) 101 % of control | dose: 200.0 mg/kg/injection, schedule: Q04DX003 (ip), vehicle: carboxymethylcellulose (CMC) 108 % of control | dose: 400.0 mg/kg/injection, schedule: Q04DX003 (ip), vehicle: carboxymethylcellulose (CMC) 90 % of control

CC1(C)N=C(N)N=C(N)N1c1ccc(CCCC(=O)Nc2ccc(S(=O)(=O)F)cc2)cc1
inactive: dose: 0.8 mg/kg/injection, schedule: Q01DX009 (ip), vehicle: saline 97 % of control | dose: 4.0 mg/kg/injection, schedule: Q01DX009 (ip), vehicle: saline 98 % of control | dose: 20.0 mg/kg/injection, schedule: Q01DX009 (ip), vehicle: saline 104 % of control | dose: 100.0 mg/kg/injection, schedule: Q01DX009 (ip), vehicle: saline 114 % of control | dose: 500.0 mg/kg/injection, schedule: Q01DX009 (ip), vehicle: saline 123 % of control

C1CCC2C(C1)CCC1C2OCN2CCCCC12 (centres undefined)
inactive: dose: 100.0 mg/kg/injection, schedule: Q04DX002 (ip), vehicle: saline with Tween-80 104 % of control | dose: 100.0 mg/kg/injection, schedule: Q04DX003 (ip), vehicle: saline 98 % of control | dose: 200.0 mg/kg/injection, schedule: Q04DX002 (ip), vehicle: saline with Tween-80 101 % of control | dose: 200.0 mg/kg/injection, schedule: Q04DX003 (ip), vehicle: saline 98 % of control | dose: 400.0 mg/kg/injection, schedule: Q04DX002 (ip), vehicle: saline with Tween-80 96 % of control | dose: 400.0 mg/kg/injection, schedule: Q04DX003 (ip), vehicle: saline 98 % of control

CCCCCCC(=O)/C=C/c1ccc(Cl)cc1
inactive: dose: 100.0 mg/kg/injection, schedule: Q01DX009 (ip), vehicle: acetone 93 % of control | [3] 96 % of control | dose: 200.0 mg/kg/injection, schedule: Q01DX009 (ip), vehicle: acetone 90 % of control | [4] 98 % of control | dose: 400.0 mg/kg/injection, schedule: Q01DX009 (ip), vehicle: acetone 92 % of control | [5] 93 % of control

Cc1ccc(S(N)(=O)=O)cc1
inactive: [3] 98 % of control | [4] 98 % of control | [5] 96 % of control

CCCCCCCCCCCCCCNCCCCCCCCCCCCCC
inactive: [6] 95 % of control | dose: 50.0 mg/kg/injection, schedule: Q04DX003 (ip), vehicle: Klucel (hydroxypropylcellulose) (HPC) 105 % of control | [7] 101 % of control | dose: 100.0 mg/kg/injection, schedule: Q04DX003 (ip), vehicle: Klucel (hydroxypropylcellulose) (HPC) 101 % of control | dose: 200.0 mg/kg/injection, schedule: Q04DX003 (ip), vehicle: Klucel (hydroxypropylcellulose) (HPC) 95 % of control

CSc1nc(N)cc(OCc2ccccc2)n1
inactive: dose: 50.0 mg/kg/injection, schedule: Q01DX001 (ip), vehicle: saline with Tween-80 100 % of control | dose: 100.0 mg/kg/injection, schedule: Q01DX001 (ip), vehicle: saline with Tween-80 97 % of control | dose: 200.0 mg/kg/injection, schedule: Q01DX001 (ip), vehicle: saline with Tween-80 92 % of control

O=C(CCl)Nc1cc(Cl)ccc1N1CCCC1
inactive: dose: 12.5 mg/kg/injection, schedule: Q01DX009 (ip), vehicle: acetone 100 % of control | dose: 25.0 mg/kg/injection, schedule: Q01DX009 (ip), vehicle: acetone 90 % of control | dose: 50.0 mg/kg/injection, schedule: Q01DX009 (ip), vehicle: acetone 90 % of control

CCOC(=O)C1N=C(c2ccccc2)OC1c1ccccc1 (centres undefined)
inactive: dose: 50.0 mg/kg/injection, schedule: Q01DX009 (ip), vehicle: saline with Tween-80 94 % of control | dose: 100.0 mg/kg/injection, schedule: Q01DX009 (ip), vehicle: saline with Tween-80 94 % of control | dose: 200.0 mg/kg/injection, schedule: Q01DX009 (ip), vehicle: saline with Tween-80 102 % of control

Cc1ccc(NC(=O)OCC2CC3C=CC2C3)cc1 (centres undefined)
inactive: [7] 98 % of control | [8] 102 % of control | dose: 400.0 mg/kg/injection, schedule: Q01DX009 (ip), vehicle: Klucel (hydroxypropylcellulose) (HPC) 100 % of control

O=C(Nc1ccc(S(=O)(=O)Nc2ncccn2)cc1)c1ccc(C(=O)Nc2ccc(S(=O)(=O)Nc3ncccn3)cc2)cc1
inactive: dose: 50.0 mg/kg/injection, schedule: Q01DX015 (ip), vehicle: methylcellulose (MC) 100 % of control | dose: 100.0 mg/kg/injection, schedule: Q01DX015 (ip), vehicle: methylcellulose (MC) 103 % of control | dose: 200.0 mg/kg/injection, schedule: Q01DX015 (ip), vehicle: methylcellulose (MC) 97 % of control | dose: 400.0 mg/kg/injection, schedule: Q01DX015 (ip), vehicle: methylcellulose (MC) 106 % of control

CCOC(=O)C(Cc1c[nH]c2cc(N(CCO)CCO)ccc12)(NC(C)=O)C(=O)OCC
inactive: [1] 97 % of control | [2] 101 % of control | dose: 400.0 mg/kg/injection, schedule: Q01DX001 (ip), vehicle: saline 98 % of control

O=c1[nH]c(CC(O)C(Cl)(Cl)Cl)nc2ccccc12 (centres undefined)
inactive: [6] 100 % of control | [7] 100 % of control | [8] 103 % of control
